Reference: patent US20230114728A1 (Venatorx Pharmaceuticals, Inc., priority 2019, published 2023)
In brackets after ≈: the same amount, converted by molar mass.

Columns and labels:
P. aeruginosa PBP3 = target: T1, P. aeruginosa PBP3 (Pseudomonas aeruginosa, UniProt G3XD46); experiment: Bocillin-FL fluorescence polarization competition binding assay, P. aeruginosa PBP3; settings: fluorescence polarization competition binding assay using Bocillin-FL
T1 construct: made in house
Procedure, shortened: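 Inhibitor competition with Bocillin-FL for P. aeruginosa PBP3 was followed by fluorescence polarization on a Cytation3 (BioTek) reader, using g-factor 0.96, 490 nm excitation and 520 nm emission. The enzyme was at 0.75 μM and the probe at 0.1 μM in Hepes/NaCl/glycerol buffer, 80 μl per well. FP was recorded immediately after probe addition for up to 60 minutes. Potency was expressed as EC50, the concentration that reduces bound probe by 50%.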

N. gonorrhoeae WHO K = experiment: Liquid broth MIC in Fastidious broth; assay type: cell-based; settings: Neisseria gonorrhoeae, read-out: Minimum Inhibitory Concentration, N. gonorrhoeae WHO K
Procedure, shortened: (§1)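 Colonies were swabbed from chocolate agar after 24 h growth and standardised by optical density at 600 nm. Compounds were serially diluted twofold in Fastidious broth, and bacteria added to give 5×10^5 CFU/mL. After about 24 h at 36 °C in 5% CO2, the lowest concentration allowing under 10% growth was taken as MIC.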

[1] = test system: N. gonorrhoeae ATCC 49226; experiment: Liquid broth MIC in Fastidious broth; assay type: cell-based; settings: Neisseria gonorrhoeae, ATCC49226; N. gonorrhoeae strain ATCC 49226; Fastidious broth; read-out: Minimum Inhibitory Concentration, N. gonorrhoeae ATCC 49226
Procedure, shortened: as §1

N. gonorrhoeae WHO Q = experiment: Liquid broth MIC in Fastidious broth; assay type: cell-based; settings: Neisseria gonorrhoeae, read-out: Minimum Inhibitory Concentration, N. gonorrhoeae WHO Q
Procedure, shortened: as §1

N. gonorrhoeae WHO Z = experiment: Liquid broth MIC in Fastidious broth; assay type: cell-based; settings: Neisseria gonorrhoeae, read-out: Minimum Inhibitory Concentration, N. gonorrhoeae WHO Z
Procedure, shortened: as §1

N. gonorrhoeae WHO G = experiment: Liquid broth MIC in Fastidious broth; assay type: cell-based; settings: Neisseria gonorrhoeae; N. gonorrhoeae strain WHO G; Fastidious broth; read-out: Minimum Inhibitory Concentration, N. gonorrhoeae WHO G
Procedure, shortened: as §1

N. gonorrhoeae FA1090 = experiment: Liquid broth MIC in Fastidious broth; assay type: cell-based; settings: Neisseria gonorrhoeae; N. gonorrhoeae strain FA1090; Fastidious broth; read-out: Minimum Inhibitory Concentration, N. gonorrhoeae FA1090
Procedure, shortened: as §1

N. gonorrhoeae WHO L = experiment: Liquid broth MIC in Fastidious broth; assay type: cell-based; settings: Neisseria gonorrhoeae; N. gonorrhoeae strain WHO L; Fastidious broth; read-out: Minimum Inhibitory Concentration, N. gonorrhoeae WHO L
Procedure, shortened: as §1

E. coli K12 PBP3 = target: T2, E. coli K12 PBP3 (Escherichia coli, UniProt P0AD68); experiment: biochemical; assay type: binding
T2 construct: made in house
T2 sequence (P0AD68 1-577): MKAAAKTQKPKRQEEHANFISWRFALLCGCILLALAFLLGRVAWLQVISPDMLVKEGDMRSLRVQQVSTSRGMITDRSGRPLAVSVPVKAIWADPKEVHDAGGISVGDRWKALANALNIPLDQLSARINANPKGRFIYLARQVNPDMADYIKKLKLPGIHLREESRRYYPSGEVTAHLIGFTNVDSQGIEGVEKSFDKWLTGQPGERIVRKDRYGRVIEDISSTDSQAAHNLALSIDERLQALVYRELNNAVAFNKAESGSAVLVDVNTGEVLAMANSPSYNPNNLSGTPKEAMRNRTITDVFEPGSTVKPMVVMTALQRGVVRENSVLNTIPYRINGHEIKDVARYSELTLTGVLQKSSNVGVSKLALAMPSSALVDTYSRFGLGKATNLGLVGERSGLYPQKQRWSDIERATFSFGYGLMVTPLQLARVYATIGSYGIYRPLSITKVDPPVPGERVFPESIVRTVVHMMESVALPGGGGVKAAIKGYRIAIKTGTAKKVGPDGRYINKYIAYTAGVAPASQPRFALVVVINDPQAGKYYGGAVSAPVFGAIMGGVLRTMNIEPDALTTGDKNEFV
Procedure, shortened: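 A. baumannii PBP2 (2.5 μM) and PBP3 (0.2 μM) were run in 25 mM Tris pH 8.0 buffer with Tween 20; E. coli PBP3 (1.5 μM) and N. gonorrhoeae PBP2 ([…]) in 50 mM Hepes pH 8.0 buffer.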

T1 sequence (G3XD46 whole entry): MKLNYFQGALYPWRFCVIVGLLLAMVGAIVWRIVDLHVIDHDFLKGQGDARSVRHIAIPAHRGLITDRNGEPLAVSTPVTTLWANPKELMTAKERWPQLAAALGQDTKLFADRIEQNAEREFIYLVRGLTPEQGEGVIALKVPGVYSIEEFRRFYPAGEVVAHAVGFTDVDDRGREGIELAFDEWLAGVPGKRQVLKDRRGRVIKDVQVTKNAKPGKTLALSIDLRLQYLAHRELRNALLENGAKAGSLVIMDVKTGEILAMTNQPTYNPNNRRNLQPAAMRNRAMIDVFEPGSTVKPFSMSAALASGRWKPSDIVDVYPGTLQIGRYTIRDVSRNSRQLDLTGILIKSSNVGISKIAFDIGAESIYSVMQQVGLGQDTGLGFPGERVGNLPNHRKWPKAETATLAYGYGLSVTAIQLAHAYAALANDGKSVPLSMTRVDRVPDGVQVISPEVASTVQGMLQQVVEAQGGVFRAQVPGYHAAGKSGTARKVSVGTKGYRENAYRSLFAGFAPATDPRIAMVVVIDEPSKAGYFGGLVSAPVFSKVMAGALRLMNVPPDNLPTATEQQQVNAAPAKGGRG

Structure (SMILES) | P. aeruginosa PBP3 Potency (P. aeruginosa PBP3) | MIC (N. gonorrhoeae WHO K) [µg/mL] | MIC [1] [µg/mL] | MIC (N. gonorrhoeae WHO Q) [µg/mL] | MIC (N. gonorrhoeae WHO Z) [µg/mL] | MIC (N. gonorrhoeae WHO G) [µg/mL] | MIC (N. gonorrhoeae FA1090) [µg/mL] | MIC (N. gonorrhoeae WHO L) [µg/mL] | EC50 (E. coli K12 PBP3) [µM]
CCN1CCN(C(=O)NC(C(=O)N[C@H]2Cc3cccc(C(=O)O)c3OB2O)c2cc(F)c(O)cc2F)C(=O)C1=O (stereo partly drawn) [Example 104, (3R)-3-(2-(2,5-difluoro-4-hydroxyphenyl)-2-(4-ethyl-2,3-dioxopiperazine-1-carboxamido)acetamido)-2-hydroxy-3,4-dihydro-2H-benzo[e][1,2]oxaborinine-8-carboxylic acid] | D (D represents a potency <10 μM) | 16 to 32 (≈ 28.6 to 57.1 µM) | 4 to 8 (≈ 7.14 to 14.3 µM) | 4 to 8 (≈ 7.14 to 14.3 µM) | 4 to 8 (≈ 7.14 to 14.3 µM) | 1 to 2 (≈ 1.78 to 3.57 µM) | 0.25 to 0.5 (≈ 0.446 to 0.892 µM) | 16 to 32 (≈ 28.6 to 57.1 µM) | < 30
O=C(O)c1cccc2c1OB(O)[C@@H](NC(=O)[C@H](NC(=O)N1CCN(CCF)C(=O)C1=O)c1c(F)cc(O)cc1F)C2 (single isomer, unassigned) [Example 126] | D (D represents a potency <10 μM) | 16 to 32 (≈ 27.7 to 55.3 µM) | 4 to 8 (≈ 6.92 to 13.8 µM) | 4 to 8 (≈ 6.92 to 13.8 µM) | 4 to 8 (≈ 6.92 to 13.8 µM) | 1 to 2 (≈ 1.73 to 3.46 µM) | < 0.125 | 16 to 32 (≈ 27.7 to 55.3 µM) | < 30
NCCN1CCN(C(=O)NC(C(=O)N[C@H]2Cc3cccc(C(=O)O)c3OB2O)c2cc(F)c(O)cc2Cl)C(=O)C1=O (stereo partly drawn) [Example 109, (3R)-3-(2-(4-(2-aminoethyl)-2,3-dioxopiperazine-1-carboxamido)-2-(2-chloro-5-fluoro-4-hydroxyphenyl)acetamido)-2-hydroxy-3,4-dihydro-2H-benzo[e][1,2]oxaborinine-8-carboxylic acid] | D (D represents a potency <10 μM) | > 64 | > 64 | > 64 | > 64 | > 64 | 4 to 8 (≈ 6.76 to 13.5 µM) | > 64 | < 30
CCN1CCN(C(=O)NC(C(=O)N[C@H]2Cc3cccc(C(=O)O)c3OB2O)c2ccc(O)c(F)c2F)C(=O)C1=O (stereo partly shown) [Example 173] | D (D represents a potency <10 μM) | 16 to 32 (≈ 28.6 to 57.1 µM) | 1 to 2 (≈ 1.78 to 3.57 µM) | 16 to 32 (≈ 28.6 to 57.1 µM) | 4 to 8 (≈ 7.14 to 14.3 µM) | 1 to 2 (≈ 1.78 to 3.57 µM) | < 0.125 | 16 to 32 (≈ 28.6 to 57.1 µM) | < 30
CCN1CCN(C(=O)N[C@@H](C(=O)N[C@H]2Cc3cccc(C(=O)O)c3OB2O)c2ccc(C(=O)O)cc2O)C(=O)C1=O (single isomer, unassigned) [Example 144] | D (D represents a potency <10 μM) | 16 to 32 (≈ 28.2 to 56.3 µM) | 1 to 2 (≈ 1.76 to 3.52 µM) | 4 to 8 (≈ 7.04 to 14.1 µM) | 4 to 8 (≈ 7.04 to 14.1 µM) | 0.25 to 0.5 (≈ 0.44 to 0.88 µM) | < 0.125 | 4 to 8 (≈ 7.04 to 14.1 µM) | < 30
CCN1CCN(C(=O)NC(C(=O)N[C@H]2Cc3cccc(C(=O)O)c3OB2O)c2ccc(C(=O)O)cc2F)C(=O)C1=O (stereo partly drawn) [Example 145, (3R)-3-(2-(4-carboxy-2-fluorophenyl)-2-(4-ethyl-2,3-dioxopiperazine-1-carboxamido)acetamido)-2-hydroxy-3,4-dihydro-2H-benzo[e][1,2]oxaborinine-8-carboxylic acid] | D (D represents a potency <10 μM) | 4 to 8 (≈ 7.01 to 14 µM) | 1 to 2 (≈ 1.75 to 3.51 µM) | 4 to 8 (≈ 7.01 to 14 µM) | 4 to 8 (≈ 7.01 to 14 µM) | 1 to 2 (≈ 1.75 to 3.51 µM) | < 0.125 | 16 to 32 (≈ 28.1 to 56.1 µM) | < 30
NCCCN1CCN(C(=O)N[C@@H](C(=O)N[C@H]2Cc3cccc(C(=O)O)c3OB2O)c2cccc(NS(N)(=O)=O)c2)C(=O)C1=O [Example 117, (R)-3-((R)-2-(4-(3-aminopropyl)-2,3-dioxopiperazine-1-carboxamido)-2-(3-(sulfamoylamino)phenyl)acetamido)-2-hydroxy-3,4-dihydro-2H-benzo[e][1,2]oxaborinine-8-carboxylic acid] | D (D represents a potency <10 μM) | > 64 | > 64 | > 64 | > 64 | 16 to 32 (≈ 25.3 to 50.7 µM) | 4 to 8 (≈ 6.33 to 12.7 µM) | > 64 | 30 to 500
NS(=O)(=O)c1cc(O)cc(C(NC(=O)N2CCN(Cc3c(F)cc(O)c(O)c3Cl)C(=O)C2=O)C(=O)N[C@H]2Cc3cccc(C(=O)O)c3OB2O)c1 (stereo partly drawn) [Example 132, (3R)-3-(2-(4-(2-chloro-6-fluoro-3,4-dihydroxybenzyl)-2,3-dioxopiperazine-1-carboxamido)-2-(3-hydroxy-5-sulfamoylphenyl)acetamido)-2-hydroxy-3,4-dihydro-2H-benzo[e][1,2]oxaborinine-8-carboxylic acid] | D (D represents a potency <10 μM) | > 64 | > 64 | > 64 | > 64 | > 64 | 16 to 32 (≈ 21.3 to 42.7 µM) | > 64 | 30 to 500
CCN1CCN(C(=O)NC(C(=O)N[C@H]2Cc3cccc(C(=O)O)c3OB2O)c2cc(Cl)c(O)c(Cl)c2)C(=O)C1=O (stereo partly drawn) [Example 171, (3R)-3-(2-(3,5-dichloro-4-hydroxyphenyl)-2-(4-ethyl-2,3-dioxopiperazine-1-carboxamido)acetamido)-2-hydroxy-3,4-dihydro-2H-benzo[e][1,2]oxaborinine-8-carboxylic acid] | D (D represents a potency <10 μM) | 16 to 32 (≈ 27 to 53.9 µM) | 4 to 8 (≈ 6.74 to 13.5 µM) | 16 to 32 (≈ 27 to 53.9 µM) | 4 to 8 (≈ 6.74 to 13.5 µM) | 4 to 8 (≈ 6.74 to 13.5 µM) | 0.25 to 0.5 (≈ 0.421 to 0.843 µM) | > 64 | < 30
CCN1CCN(C(=O)NC(C(=O)N[C@H]2Cc3cccc(C(=O)O)c3OB2O)c2cc(F)c(O)cc2Cl)C(=O)C1=O (stereo partly drawn) [Example 103, (3R)-3-(2-(2-chloro-5-fluoro-4-hydroxyphenyl)-2-(4-ethyl-2,3-dioxopiperazine-1-carboxamido)acetamido)-2-hydroxy-3,4-dihydro-2H-benzo[e][1,2]oxaborinine-8-carboxylic acid] | D (D represents a potency <10 μM) | 16 to 32 (≈ 27.7 to 55.5 µM) | 16 to 32 (≈ 27.7 to 55.5 µM) | 16 to 32 (≈ 27.7 to 55.5 µM) | 16 to 32 (≈ 27.7 to 55.5 µM) | 1 to 2 (≈ 1.73 to 3.47 µM) | 0.25 to 0.5 (≈ 0.433 to 0.867 µM) | > 64 | < 30
CCN1CCN(C(=O)N[C@H](C(=O)N[C@H]2Cc3cccc(C(=O)O)c3OB2O)c2ccc(C(=O)O)cc2O)C(=O)C1=O (single isomer, unassigned) [Example 143] | B (B represents a potency between 30 μM and 500 μM inclusive) | > 64 | 16 to 32 (≈ 28.2 to 56.3 µM) | > 64 | 16 to 32 (≈ 28.2 to 56.3 µM) | 4 to 8 (≈ 7.04 to 14.1 µM) | 1 to 2 (≈ 1.76 to 3.52 µM) | > 64 | < 30
NC1(CN2CCN(C(=O)N[C@@H](C(=O)N[C@H]3Cc4cccc(C(=O)O)c4OB3O)c3c(F)cc(O)cc3F)C(=O)C2=O)CC1 (single isomer, unassigned) [Example 121] | D (D represents a potency <10 μM) | > 64 | 16 to 32 (≈ 26.6 to 53.2 µM) | > 64 | > 64 | 16 to 32 (≈ 26.6 to 53.2 µM) | 1 to 2 (≈ 1.66 to 3.33 µM) | > 64 | < 30
NCCN1CCN(C(=O)N[C@@H](C(=O)N[C@H]2Cc3cccc(C(=O)O)c3OB2O)c2cc(Cl)c(O)c(Cl)c2)C(=O)C1=O (single isomer, unassigned) [Example 166] |  | > 64 | 16 to 32 (≈ 26.3 to 52.6 µM) | 16 to 32 (≈ 26.3 to 52.6 µM) | 16 to 32 (≈ 26.3 to 52.6 µM) | 4 to 8 (≈ 6.58 to 13.2 µM) | 0.25 to 0.5 (≈ 0.411 to 0.822 µM) | > 64 | < 30
O=C(O)c1cccc2c1OB(O)[C@@H](NC(=O)C(NC(=O)N1CCN(CCF)C(=O)C1=O)c1c(F)cc(O)cc1F)C2 (mixture of isomers) [Example 119, (3R)-3-(2-(2,6-difluoro-4-hydroxyphenyl)-2-(4-(2-fluoroethyl)-2,3-dioxopiperazine-1-carboxamido)acetamido)-2-hydroxy-3,4-dihydro-2H-benzo[e][1,2]oxaborinine-8-carboxylic acid] |  | 16 to 32 (≈ 27.7 to 55.3 µM) | 16 to 32 (≈ 27.7 to 55.3 µM) | 16 to 32 (≈ 27.7 to 55.3 µM) | 4 to 8 (≈ 6.92 to 13.8 µM) | 1 to 2 (≈ 1.73 to 3.46 µM) | 0.25 to 0.5 (≈ 0.432 to 0.865 µM) | 16 to 32 (≈ 27.7 to 55.3 µM) | < 30
